Measurements: ChEMBL document CHEMBL1141777, “Norlanostane triterpenoidal saponins from the marine sponge melophlussarassinorum” (2005)
Active and inactive are the calls of the source. The calls are words filed in the database; no cut-off is given here.

Experiments:
[1] = tested on: Saccharomyces cerevisiae; assay: Antimicrobial activity against Saccharomyces cerevisiae at 10 ug after 24 hrs by agar diffusion assay; assay type: functional; details: read-out: IZ
[2] = tested on: Bacillus subtilis; assay: Antimicrobial activity against Bacillus subtilis DSM 2109; assay type: functional, organism-based
[3] = tested on: Escherichia coli; assay: Antimicrobial activity against Escherichia coli DSM 10290; assay type: functional, organism-based
[4] = tested on: Saccharomyces cerevisiae; assay: Antimicrobial activity against Saccharomyces cerevisiae; assay type: functional, organism-based
[5] = tested on: Bacillus subtilis; assay: Antimicrobial activity against Bacillus subtilis DSM 2109 at 10 ug after 24 hrs by agar diffusion assay; assay type: functional; details: DSM 2109, 24 h, read-out: IZ

Structure (SMILES)	zone of inhibition at 10 µg/disc [1] [mm]	Activity [2]	Activity [3]	Activity [4]	zone of inhibition at 10 µg/disc [5] [mm]
CC(=O)N[C@H]1[C@H](O[C@@H]2CO[C@@H](O[C@H]3CC[C@]4(C)C5=C(CC[C@H]4C3(C)C)[C@@H]3CC[C@H]([C@H](C)CC(=O)C=C(C)C)[C@@]3(C)CC5)[C@H](O[C@@H]3O[C@H](CO[C@@H]4O[C@H](CO)[C@@H](O)[C@H](O)[C@H]4O[C@@H]4O[C@H](CO)[C@@H](O)[C@H](O)[C@H]4O)[C@@H](O)[C@H](O)[C@H]3NC(C)=O)[C@H]2O)O[C@H](CO)[C@H](O)[C@@H]1O [SARASINOSIDE A1]	10	inactive	inactive	Active	
CC(=O)N[C@H]1[C@H](O[C@@H]2CO[C@@H](O[C@H]3CC[C@]4(C)C5=C(CC[C@H]4C3(C)C)[C@@H]3CC[C@H]([C@H](C)CC(=O)CC(C)(C)O)[C@@]3(C)CC5)[C@H](O[C@@H]3O[C@H](CO[C@@H]4O[C@H](CO)[C@@H](O)[C@H](O)[C@H]4O[C@@H]4O[C@H](CO)[C@@H](O)[C@H](O)[C@H]4O)[C@@H](O)[C@H](O)[C@H]3NC(C)=O)[C@H]2O)O[C@H](CO)[C@H](O)[C@@H]1O [SARASINOSIDE J]	13			Active	9
